Test results: a melting point compilation (Tetko et al.; mined from patent text by program, amines drawn as free bases though some values may be those of a salt)

With `CCOc1ccc(-c2c(C)c3cc(O)ccc3n2Cc2ccc(OCCN3CCCCC3)cc2)cc1` the melting point was 173 to 175 °C.
Work on `NS(=O)(=O)c1ccc(CO)s1` yielded a melting point of 70 to 71 °C.
Work on `Cc1cccc2cc3c(=O)[nH]cc(C(=O)O)c3nc12` yielded a melting point greater than 300 °C.
Work on `CCOC(=O)C1=C(C)NC(C)=C(C(=O)OCC)C1c1ccccc1/C=C/C(=O)OC(CC(C)C)CC(C)C` yielded a melting point of 49 to 52 °C.
Work on `CC(=O)NC(CC(C)C)C(=O)N1CC1C#N` (racemic) yielded a melting point of 112 to 116 °C.
`Nc1noc(CN2CCC[C@@H](OCc3cc(C(F)(F)F)cc(C(F)(F)F)c3)[C@H]2c2ccccc2)n1` (relative stereo) showed a melting point of 138 to 139 °C.
Molecule `Cc1cc2c(cc1Oc1nnnn1-c1ccccc1)[C@@H](c1ccccc1)CN(C)CC2` has a melting point of 140 to 142 °C.
With `CCc1cc(N)c(C(=O)c2ccccc2)c(C)n1` the melting point was 200 to 202 °C.
Molecule `OCC1(CO)CN(Cc2ccccc2)C1` has a melting point of 86 to 87 °C.
For `CCOC(=O)/C=C/c1ccc(O)cc1OCc1ccccc1`, the melting point was 131 to 133 °C.
With `CCOC(=O)C(=Cc1ccccc1)S(N)(=O)=O` the melting point was 88 to 89 °C.
With `C=CCc1ccccc1OCC(O)CNC1CCc2ccccc2C1` (centres undefined) the melting point was 70 to 72 °C.
For `CCn1c(C)c(I)c(=O)n(CC)c1=O`, the melting point was 159 to 162 °C.
In the case of `C=C(C)OC(=O)N1C(=O)[C@H](C)Nc2cc(Cl)ccc21`, the melting point is reported as 158 to 159 °C.
`COc1cc(CNc2nc(C)nc(C)c2Cl)ccc1Oc1ccc2ncc([N+](=O)[O-])n2n1` gave a melting point of 229 to 232 °C.
In the case of `CC(O)C(=O)Nc1ccc(C2=NNC(=O)CC2C)cc1` (centres undefined), the melting point is reported as 181 to 182 °C.
For `Cc1ccc(S(=O)(=O)OC[C@H]2CN(c3ccc(N4CCSCC4)c(F)c3)C(=O)O2)cc1`, the melting point was 141 °C.
`CN(CC(O)c1ccc2[nH]c(=O)[nH]c2c1)C1CCC(c2ccccc2)CC1` (centres undefined) gave a melting point of 238 to 239 °C.
In the case of `COc1ccccc1Oc1c(NS(=O)(=O)c2ccc(C(C)(C)C)cc2)ncnc1OCCO`, the melting point is reported as 143 to 148 °C.
In the case of `SCc1cn2ccccc2n1`, the melting point is reported as 168 to 178 °C.
`COc1ccc(C=Cc2nnc(C(Br)(Br)Br)o2)cc1` showed a melting point of 160 to 161 °C.
In the case of `O=c1nc(-c2ccccc2)c2cc([N+](=O)[O-])ccc2[nH]1`, the melting point is reported as greater than 300 °C.
With `Cc1cc(-c2c(F)c(F)c3c(=O)c(C(=O)O)cn4c3c2OC[C@@H]4C)cc(C)n1` the melting point was 307 to 310 °C.
With `CC(C)n1cc(-c2c(-c3ccc(F)cc3)nn3ccncc23)ccc1=O` the melting point was 214 to 215 °C.
Work on `O=C1COCC2=C1C(c1ccc(F)c(Br)c1)C1=C(COC1=O)N2` (centres undefined) yielded a melting point of 166 to 168 °C.
Molecule `CCOC(=O)c1[nH]c2ccccc2c1-c1ccc([N+](=O)[O-])cc1` has a melting point of 218 to 220 °C.
Molecule `CN1CCC(Oc2ccc(NC(=O)n3ccc4cc(Oc5cc(CC(N)=O)ncn5)ccc43)cc2C(F)(F)F)CC1` has a melting point of 200 to 201 °C.
`CC(C)N(C(=O)c1ccc(OCCCCCOc2ccc(C(N)=NO)cc2)cc1)C(C)C` gave a melting point of 146 to 149 °C.
Work on `CC(C)(C)OC(=O)NCCNC(=O)c1n[nH]cc1-c1ccccc1` yielded a melting point of 71 °C.
Molecule `CC1(C)CNS(=O)(=O)N1` has a melting point of 80 to 83 °C.
With `CC(C)(C)OCC1CN(c2ccc3cc(OCc4ccccc4)ccc3c2)C(=O)O1` (centres undefined) the melting point was 152 °C.
`C[C@H]1CCCC(C)(C)[C@@H]1C(=O)c1ccco1` showed a melting point of 81 to 84 °C.
For `CSc1ccc(C2=C(c3ccc(C(F)(F)F)cc3)CCC2)cc1`, the melting point was 60 to 61.5 °C.
In the case of `COCCNC(=O)c1ccc(C)c(-n2c(C)cc(OCc3ccccc3CNC(=O)Nc3cc(C(C)(C)C)nn3-c3ccc(Cl)c(O)c3)c(Cl)c2=O)c1`, the melting point is reported as 182 to 183 °C.
Work on `CC1=C(C(=O)OC(C)C)C(c2cccc([N+](=O)[O-])c2)n2c(n[nH]c2=O)N1` (centres undefined) yielded a melting point of 225 to 227 °C.
Molecule `Cc1ccc(-c2cc(CN3CCN(C(=O)OC(C)(C)C)CC3)c(=O)n(CC(C)C)n2)cc1F` has a melting point of 68.7 to 69 °C.
In the case of `C#Cc1cn(C2CC(OC(C)=O)C(COC(C)=O)O2)c(=O)[nH]c1=O` (centres undefined), the melting point is reported as 152 to 154 °C.
For `COCCOC(=O)c1c(-c2ccncc2)[nH]c(-c2ccncc2)c1C`, the melting point was 174 to 177 °C.
In the case of `O=C1C=CC2=C(C1)Cc1ccccc1OCO2`, the melting point is reported as 93 to 95 °C.
With `Cc1c(-c2ccc(Cl)cc2)[nH]c2ccc(OCc3ccccc3)cc12` the melting point was 134 to 136 °C.
Molecule `CCN(CC)CCN1CCN(CCCN2CCCCC2)C1=C(C#N)C#N` has a melting point of 78 to 80 °C.
Molecule `CCOC(=O)C1NC(=O)C1OC` (centres undefined) has a melting point of 91 to 92 °C.
`CC(=O)Nc1nc2ccc(S(=O)(=O)n3c(COC(C)(C)C(=O)O)cc4cc(C(F)(F)F)ccc43)cc2s1` showed a melting point of 144 to 146 °C.
`O=C(O)CC1=C(Cc2ccc3ccccc3c2)C(=O)CCC1` gave a melting point of 78 to 80 °C.
Molecule `COc1ccc(Cl)n2nc(S(=O)(=O)Cl)nc12` has a melting point of 149 to 151 °C.
In the case of `CCCCCCCCCCCCCC=CCC(O)C(=O)O` (centres undefined), the melting point is reported as 78 to 79.5 °C.
In the case of `Cc1ccc(-c2cc(Cl)cc3c2NC(CN)CO3)c(C(F)(F)F)c1` (centres undefined), the melting point is reported as 98 °C.
For `O=[N+]([O-])C=C1NCCN1Cc1ccc(F)nc1`, the melting point was 139 to 142 °C.
Work on `NS(=O)(=O)c1ccc(-c2nc(C(F)(F)F)oc2-c2ccc(Cl)cc2)cc1` yielded a melting point of 167 to 168 °C.
`CCCCC(C(=O)OC)c1cccc(C(=O)c2cc3cc(C(=O)OC)sc3s2)c1` (centres undefined) showed a melting point of 95 °C.
`COc1ccc(C2Nc3ccc(Cl)cc3C(C#CC3CC3)(C(F)(F)F)O2)cc1OC` (centres undefined) gave a melting point of 172 to 175 °C.
In the case of `CCOC(=O)CCc1cn(C)nc1O`, the melting point is reported as 89 to 91 °C.
With `CCCn1c(=O)n(C2CCN(C(=O)OC(C)(C)C)CC2)c2ccccc21` the melting point was 102 to 105 °C.
Work on `COC(=O)c1cc(C(=O)OC)cc(P(=O)(c2ccccc2)c2ccccc2)c1` yielded a melting point of 170 to 171 °C.
For `CCCCn1nc2c(N)nc3ccccc3c2c1CCS(=O)(=O)CCC`, the melting point was 169 to 171 °C.
Work on `Cc1ccc(-c2nnnn2C)c(S(N)(=O)=O)c1` yielded a melting point of 161 to 171 °C.
For `N#CN1CCC(c2nn(-c3ccccc3)c3ccc(F)cc23)CC1`, the melting point was 137 to 139 °C.
Molecule `Cn1ncc2c(=O)n3ccsc3nc21` has a melting point of 220 to 221 °C.
In the case of `COc1c(F)c(F)cc2c(=O)c(C(=O)O)cn(C3CC3)c12`, the melting point is reported as 185 to 186 °C.
With `CNC(=C[N+](=O)[O-])NCCSCc1ncccc1Cl` the melting point was 166 °C.
Molecule `CCCn1nnn(-c2cc(OC(C)C)c(F)cc2F)c1=O` has a melting point of 76.5 to 77 °C.
Molecule `Cn1cc(C(=O)NS(=O)(=O)c2cccs2)cn1` has a melting point of 174 to 180 °C.
`O=C1NC(=O)C(c2ccc(Br)s2)O1` (centres undefined) gave a melting point of 139 to 140 °C.
Work on `CN1CC=C(c2c[nH]c3ccc(Oc4ccccc4)cc23)CC1` yielded a melting point of 135 to 137 °C.
For `O=C(O)c1cccc(CN2C(=O)C3(COc4cc5c(cc43)OCCO5)c3ccccc32)c1` (centres undefined), the melting point was 254 to 258 °C.
Molecule `COc1ccccc1-c1nc(N)ncc1-c1ccc(=O)n(C)n1` has a melting point of 225 °C.
Molecule `COc1cccc(-c2n[nH]c3c2Cc2ccccc2-3)c1` has a melting point of 172 to 174 °C.
Work on `Cc1cc(C)c2nc(C)c(C(=O)O)c(-c3ccccc3Cl)c2c1` yielded a melting point of 278 to 279 °C.
In the case of `CCCCCCCCC(CCC)CC(=O)Nc1ccccc1` (centres undefined), the melting point is reported as 98 to 100 °C.
For `COc1c(C(=O)O)n(C)c(=O)c2ccc(Cl)cc12`, the melting point was 216 to 217 °C.
Molecule `CC(C)CC(Br)C(=O)N1CCC[C@H]1CO` (some centres undefined) has a melting point of 79 to 82 °C.
With `COc1nc(C)nc(NC(=O)NS(=O)(=O)c2c(Cl)cccc2C(C)F)n1` (centres undefined) the melting point was 181 to 183 °C.
Work on `NC(=O)CCC(N)CO` (centres undefined) yielded a melting point of 92 to 95 °C.
For `CC(C)(O)C(=O)c1ccc(C(O)c2ccc(C(=O)C3(O)CCCCC3)cc2)cc1` (centres undefined), the melting point was 115 to 118 °C.
Work on `FC(F)(F)c1cccc(Nc2ccccc2-c2n[nH]c(=S)[nH]2)c1` yielded a melting point of 275 to 279 °C.
In the case of `CS/C=C(/C)n1c(=O)n(Cc2cc(C(F)(F)F)cc(C(F)(F)F)c2)c2ccccc21`, the melting point is reported as 148 °C.
In the case of `CC(C)(NC1=NS(=O)(=O)c2sc(Cl)cc2N1)c1ccccc1`, the melting point is reported as 360 °C.
Molecule `Cc1ccsc1C(=O)NP(N)(N)=O` has a melting point of 267 to 275 °C.
`Fc1cc(Br)cc(CBr)c1` showed a melting point of 41 to 43 °C.
With `COC(=O)c1ccc(C(=O)Nc2ccccc2OC)cc1` the melting point was 119 to 121 °C.
`COc1cc2c(c3c1OC(C)(C)C3)C(c1ccccc1-c1ccncc1)=NC(C)(C)C2` showed a melting point of 187 to 189 °C.
`CNCC(=O)NCC1Cc2cc(C)c3[nH]c(=O)ccc3c2O1` (centres undefined) gave a melting point of 188 to 191 °C.
Molecule `Cc1c(Nc2c(C#N)cnc3sc(C(=O)O)cc23)ccc2[nH]ccc12` has a melting point of 287 °C.
For `CC(=O)Nc1ccc2c(c1)N1CCN=C1S2`, the melting point was 268 °C.
`CC#CCCn1ncc2c(OCC)c(C(=O)OCC)c(C)nc21` showed a melting point of 94 to 95 °C.
In the case of `C[C@H]1[C@@H](CO)CCN1c1ccc(C#N)c2sccc12`, the melting point is reported as 109 to 111 °C.
`CCCc1nc(CO)c(C(=O)OCC)n1Cc1ccc(-c2ccccc2C(=O)OC(C)(C)C)cc1` gave a melting point of 108 to 110 °C.
Work on `CCn1nc(C)sc1=Nc1ccc(N2CCN(c3ccc(OC)cc3)CC2)cc1` yielded a melting point of 175 °C.
`O=S1(=O)CCN2C=C(F)C=C(c3ccc(Oc4ccccc4)cc3)C2=N1` showed a melting point of 91.9 to 92 °C.
For `CNC(=O)Oc1ccc(NS(=O)(=O)c2ccc(C)cc2)c(C)c1`, the melting point was 181 to 184 °C.
Work on `CCOC(=O)c1sc2[nH]c(=O)c(=O)[nH]c2c1C` yielded a melting point greater than 300 °C.
`O=C(O)Cc1ccc(N(C(=O)C(COC2CCCCO2)NS(=O)(=O)c2ccc3ccccc3c2)c2ccc(CC(=O)O)cc2)cc1` (racemic) showed a melting point of 130 to 140 °C.
Work on `COCC1OC(n2cnc3c(NC4CCCC4)ncnc32)C(O)C1O` (centres undefined) yielded a melting point of 164 to 166 °C.
`CC(=O)Nc1ccc(C(C)=O)cc1CN(C)C` gave a melting point of 68 to 72 °C.
With `CCc1nc(-c2ccccc2Cl)nn1C` the melting point was 44 °C.
`O=C1Nc2cc(Cl)c(Cl)cc2N2CCNC[C@H]12` gave a melting point of 136 to 138 °C.
In the case of `COc1ccc(-c2ccc(C#N)cc2)cc1-c1nc2cc(C#N)ccc2[nH]1`, the melting point is reported as 289 to 290 °C.
`CC(C)(O)c1ccc(-c2ccc(=O)n(Cc3ccc(Cl)cc3)c2)cc1` gave a melting point of 157 °C.
`CCc1nn(CCOP(=O)(O)O)c(CC)c1Oc1cc(C#N)cc(C#N)c1` showed a melting point of 198 to 199 °C.
With `O=C(/C=C/[C@@H]1[C@H]2CC(=O)O[C@H]2C[C@H]1OC(=O)c1ccccc1)COc1ccccc1` the melting point was 132 °C.
`O=S(=O)(NCc1ccnc2c(Cl)cccc12)c1ccc(Br)cc1` showed a melting point of 185 °C.
With `C=CCNC(=O)C1CCc2cc(Cl)ccc2O1` (centres undefined) the melting point was 112 to 114 °C.
`O=C(O)COc1cc(Cl)ccc1C(=O)NCc1ccc(Cl)c(Cl)c1` showed a melting point of 177 to 178 °C.
With `CC(C)(C)OC(=O)Nc1ccsc1NC(=O)OC(C)(C)C` the melting point was 165 to 167 °C.
